“And” between values parts separate entries of the source, which are not always exact repeats. Equal values may be shown once.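 Results reflect a 48-hour exposure of cells in 96-well plates to compound at five concentrations. TGI: total growth inhibition.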
Assays:
Experiment in all cases: DTP human tumour cell line panel, 48 h
[1] = tested on: UACC-257 melanoma
[2] = tested on: OVCAR-5 ovarian
[3] = tested on: HCT-15 colon
[4] = tested on: SW-620 colon
[5] = tested on: A498 renal
[6] = tested on: NCI-H23 lung
[7] = tested on: RXF 393 renal
[8] = tested on: SK-OV-3 ovarian
[9] = tested on: SR leukemia
[10] = tested on: SK-MEL-28 melanoma
[11] = tested on: NCI-H460 lung
[12] = tested on: U251 CNS
[13] = tested on: BT-549 breast
[14] = tested on: NCI/ADR-RES ovarian
[15] = tested on: NCI-H226 lung
[16] = tested on: PC-3 prostate
[17] = tested on: RPMI-8226 leukemia

Compound	TGI [1]	TGI [2]	TGI [3] [µM]	TGI [4]	TGI [5] [µM]	TGI [6] [µM]	TGI [7]	TGI [8] [µM]	TGI [9] [µM]	TGI [10] [µM]	TGI [11] [µM]	TGI [12] [µM]	TGI [13] [µM]	TGI [14] [µM]	TGI [15] [µM]	TGI [16] [µM]	TGI [17] [µM]
CC(C)(C)N=CN1C=Cc2nc3ccccc3cc2C1	> 100 µM	> 100 µM	> 100	49.2 µM	> 100	> 100	> 100 µM	> 100	> 100	> 100	> 100	> 100					
C1CNOCCCONCCCNOCCCONC1	> 100 µM	> 100 µM	> 100	> 100 µM	> 100	> 100	64.2 µM	> 100		> 100	94	> 100	> 100	> 100	> 100	86	
CCOC1=C2N=C(C(CC)c3ccccc3F)N=C2C(=O)c2ccccc21 (centres undefined)	> 100 µM		> 100	> 100 µM		> 100	74.8 µM		> 100	> 100	> 100	> 100			> 100		> 100
CC1(C)C2CCC3CC(CCC#N)CCC3C21C#N (centres undefined)	> 100 µM	> 100 µM	> 100	> 100 µM	> 100	> 100	> 100 µM	> 100	> 100	> 100	> 100	> 100		> 100	> 100	> 100	> 100
COc1ccc(C2c3cc4c(cc3OC(NNc3ccccc3)C2C)OCO4)cc1 (centres undefined)	86.3 µM	> 100 µM	> 100	> 100 µM	76.9	> 100	54.3 µM	> 100	16.3	> 100	> 100	> 100	76.1		> 100	> 100	> 100
COC(=O)c1ccc2c(c1)CC1(C2)Cc2cc3c(cc2C1)CCC3	> 100 µM	> 100 µM	> 100	> 100 µM	> 100	> 100	> 100 µM	> 100	> 100	> 100	> 100	> 100		> 100		> 100	> 100
CCS(=O)C(=O)N(O)c1ccc(Cl)cc1 (centres undefined)	75.8 µM	> 100 µM	68.5	46 µM	> 100		41.6 µM	> 100		35.6		44.6		81.4	> 100	> 100	20.4
CC(C)OC(=O)c1ccc(NCc2cc(O)ccc2O)cc1	26.2 µM	15.9 µM	9.21	17.7 µM	> 100	18	5.79 µM	> 100	10.2	29.3	> 100	17.1	12.4		18.9	3.99	
CC1=CC2C(C=C1)S(=O)(=O)N1CC21c1ccccc1 (centres undefined)	> 100 µM	> 100 µM	> 100	> 100 µM	> 100	> 100		> 100	> 100	> 100	> 100	> 100					> 100
Clc1ccc(Cl)c(N=Nc2cc3c4c(c2)CCN4CCC3)c1	> 10 µM		> 10	> 10 µM	> 10	> 10	> 10 µM	> 10	> 10	> 10	> 10	> 10		> 10	> 10	> 10	> 10
O=Cc1c[nH]c2c(=O)[nH]cnc12	> 100 µM		> 100	> 100 µM		> 100	> 100 µM	> 100	> 100	> 100							> 100
COc1ccc2[nH]c3c(c2c1)[C@H](c1ccccc1)C[C@@H]1C(=O)N(c2ccccc2)C(=O)[C@H]31	> 100 µM	> 100 µM	> 100	49.7 µM	49.6		36.1 µM	50	76.4	> 100	84.1	38.3			57.6		
CSc1nc(=S)[nH]c2c1c(C)nn2-c1ccccc1	51.9 µM	> 100 µM	> 100	> 100 µM	80.6	45.8	94.1 µM	90.3	42.8	> 100	58.9	> 100	> 100		51.2	68.3	47.7
O=C(Cc1ccccc1)NN1C(=O)C(Cl)C1c1ccccc1Cl (centres undefined)	> 100 µM	> 100 µM	> 100	> 100 µM	> 100	> 100	> 100 µM	> 100	64.4	> 100	> 100	> 100			> 100		51.1
CCOC(=O)c1c2ccc(/C=C/c3ccccn3)ccc-2c(C(=O)OCC)c1N	> 100 µM	> 100 µM	> 100	> 100 µM	> 100	> 100	> 100 µM	> 100		1.49	> 100				> 100		
COc1cc2c(c(OC)c1OC)-c1ccc(SC)c(=O)cc1[C@@H](NCc1ccc(F)cc1)CC2	44.1 µM and 55.7 µM	75 µM and > 100 µM	7.64	18.8 µM and > 100 µM	0.0265		75 µM and 19.5 µM		12.8	75							31.2
COc1cc2ccc3c4ccccc4cnc3c2cc1OC	> 100 µM	> 100 µM	> 100	> 100 µM		> 100	> 100 µM	> 100	> 100	> 100	> 100	> 100			> 100		> 100

From PubChem BioAssay (NCI)
